# Measurements from patent US20240116985A1, “STAPLED PEPTIDES AND METHODS THEREOF” (priority 2020, published 2024).
# Like-named read-outs stand apart in the source and are kept apart here.
# Tests used:
# [1] = Solubility in PBS; assay type: physicochemical
# Method in brief: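 Solubility is derived from HPLC peak areas: the ratio of the PBS supernatant peak to a 50 μM DMSO peptide peak, times 50 uM.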
# [2] = target: T1, full-length beta-Catenin (Uniprot ID P35222) (Homo sapiens, UniProt P35222); assay: Fluorescence polarization IC50 (beta-catenin / 5FAM-TCF4 10-53 competition); assay type: binding
# T1 construct: 10 nM full-length beta-Catenin (Uniprot ID P35222)
# T1 sequence (P35222 1-781): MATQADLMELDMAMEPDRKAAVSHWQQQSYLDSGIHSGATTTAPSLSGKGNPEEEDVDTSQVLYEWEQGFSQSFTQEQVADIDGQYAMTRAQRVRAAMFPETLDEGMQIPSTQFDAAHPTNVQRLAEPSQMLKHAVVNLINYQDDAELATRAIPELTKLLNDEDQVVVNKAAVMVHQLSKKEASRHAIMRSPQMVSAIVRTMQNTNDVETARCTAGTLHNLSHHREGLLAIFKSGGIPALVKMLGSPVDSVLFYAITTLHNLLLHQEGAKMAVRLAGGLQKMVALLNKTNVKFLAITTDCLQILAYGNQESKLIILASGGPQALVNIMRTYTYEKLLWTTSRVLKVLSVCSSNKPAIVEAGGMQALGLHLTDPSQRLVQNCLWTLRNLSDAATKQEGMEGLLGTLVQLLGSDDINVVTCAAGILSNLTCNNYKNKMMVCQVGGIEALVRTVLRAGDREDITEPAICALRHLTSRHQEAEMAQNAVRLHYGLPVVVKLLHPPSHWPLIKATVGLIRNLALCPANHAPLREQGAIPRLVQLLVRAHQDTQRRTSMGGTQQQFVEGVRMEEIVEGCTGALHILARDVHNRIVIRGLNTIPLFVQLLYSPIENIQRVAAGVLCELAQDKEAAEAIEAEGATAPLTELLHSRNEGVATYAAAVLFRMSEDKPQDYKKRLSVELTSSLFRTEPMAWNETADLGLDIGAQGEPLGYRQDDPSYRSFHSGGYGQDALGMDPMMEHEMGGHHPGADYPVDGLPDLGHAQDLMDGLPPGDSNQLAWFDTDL
# [3] = CHI Log D procedure; assay type: physicochemical; details: for CHI Log D: pH 7.4; for chromatographic logD: pH 7.4, CHI Log D
# [4] = fluorescence polarization, beta-catenin, read-out: FP EC50
# [5] = fluorescence polarization, read-out: beta-Catenin FP IC50
Structure (SMILES),Solubility [1],"IC50 [2, 4]",IC50 ([2]; read-out: beta-Catenin FP IC50),CHI Log D [3],"IC50 [2, 5]",IC50 ([2]; read-out: FP EC50),chromatographic logD [3],Solubility ([1]; Solubility (uM))
"CC[C@H](C)[C@H](NC(=O)[C@H](CCC(N)=O)NC(=O)[C@H](Cc1csc2ccccc12)NC(=O)[C@H](Cc1ccccc1)NC(=O)[C@]1(C)CCCCCCC=CCCCC2(CCCC=CC[C@]3(CCCN3C(C)=O)C(=O)N[C@@H](CC(=O)O)C(=O)N[C@@H](CC(C)C)C(=O)N2)C(=O)N[C@@H](CC(=O)O)C(=O)N[C@@H](CCC(=O)O)C(=O)N[C@@H](C)C(=O)N[C@@H](C)C(=O)N[C@@H](Cc2ccccc2)C(=O)N[C@@H](CC(N)=O)C(=O)N1)C(N)=O (stereo partly drawn) [I-733, Ac-PL3-Asp-Leu-B5-Asp-Glu-Ala-Ala-Phe-Asn-S8-Phe-BztA-Gln-Ile-NH2]",43 µM,,,2.154,4260 nM,4260 nM,,
"CC(=O)N1CCC[C@]12CC=CCCCC1(CCCC=CCCCCCC[C@@](C)(C(=O)N[C@@H](Cc3ccccc3)C(=O)N[C@@H](Cc3csc4ccccc34)C(=O)N[C@@H](Cc3cn(C)cn3)C(N)=O)NC(=O)[C@H](CC(N)=O)NC(=O)[C@H](Cc3ccccc3)NC(=O)[C@H](C)NC(=O)[C@H](C)NC(=O)[C@H](CCC(=O)O)NC(=O)[C@H](CC(=O)O)NC1=O)NC(=O)[C@H](C)NC(=O)[C@H](CC(=O)O)NC2=O (stereo partly drawn) [I-479, Ac-PL3-Asp-Ala-B5-Asp-Glu-Ala-Ala-Phe-Asn-S8-Phe-BztA-1MeH-NH2]",38 µM,,,2.094,27 nM,27 nM,,
"CC(=O)N1CCC[C@]12CC=CCCCC1(CCCC=CCCCOC(=O)N3CC[C@@](C(=O)N[C@@H](Cc4ccccc4Cl)C(=O)N[C@@H](Cc4csc5ccccc45)C(=O)N[C@@H](CO)C(N)=O)(C3)NC(=O)[C@H](CO)NC(=O)[C@H](Cc3ccccc3)NC(=O)[C@H](C)NC(=O)[C@H](C)NC(=O)[C@H](CC(N)=O)NC(=O)[C@H](CC(=O)O)NC1=O)NC(=O)[C@H](CC(C)(C)C)NC(=O)[C@H](CC(=O)O)NC2=O (stereo partly drawn) [I-1020, Ac-PL3-Asp-Npg-B5-Asp-Asn-Ala-Ala-Phe-Ser-PyrS2-2C1F-BztA-Ser-NH2]",10 µM,,52 nM,,,,2.49,
"CC(=O)N1CCC[C@]12CC=CCCCC1(CCCC=CCCCOC(=O)N3CC[C@@](C(=O)N[C@@H](Cc4cccs4)C(=O)N[C@@H](Cc4csc5ccccc45)C(=O)N[C@@H](Cc4c[nH]cn4)C(N)=O)(C3)NC(=O)[C@H](CC(N)=O)NC(=O)[C@H](Cc3ccccc3)NC(=O)[C@H](C)NC(=O)[C@H](C)NC(=O)[C@H](CC(=O)O)NC(=O)[C@H](CC(=O)O)NC1=O)NC(=O)[C@H](CC(C)(C)C)NC(=O)[C@H](CC(=O)O)NC2=O (stereo partly drawn) [I-779, Ac-PL3-Asp-Npg-B5-Asp-Asp-Ala-Ala-Phe-Asn-PyrS2-2Thi-BztA-His-NH2]",,,5 nM,,,,2.12,44 µM
"CC(=O)N1CCC[C@]12CC=CCCCC1(CCCC=CCCCOC(=O)N3CC[C@@](C(=O)N[C@@H](Cc4ccsc4)C(=O)N[C@@H](Cc4csc5ccccc45)C(=O)N[C@@H](CO)C(N)=O)(C3)NC(=O)[C@H](CC(N)=O)NC(=O)[C@H](Cc3ccccc3)NC(=O)[C@H](C)NC(=O)[C@H](C)NC(=O)[C@H](CN(CC(=O)O)CC(F)(F)F)NC(=O)[C@H](CC(=O)O)NC1=O)NC(=O)[C@H](CC(C)(C)C)NC(=O)[C@H](CC(=O)O)NC2=O (stereo partly drawn) [I-940, Ac-PL3-Asp-Npg-B5-Asp-TfeGA-Ala-Ala-Phe-Asn-PyrS2-3Thi-BztA-Ser-NH2]",45 µM,1740 nM,1740 nM,2.055,,,,
"CC(=O)N1CCC[C@]12CC=CCCCC1(CCCC=CCCCCCC[C@@](C)(C(=O)N[C@@H](Cc3ccsc3)C(=O)N[C@@H](Cc3csc4ccccc34)C(N)=O)NC(=O)[C@H](CC(N)=O)NC(=O)[C@H](Cc3ccccc3)NC(=O)[C@H](C)NC(=O)[C@H](C)NC(=O)[C@H](CCC(=O)O)NC(=O)[C@H](CC(=O)O)NC1=O)NC(=O)[C@H](CC(C)C)NC(=O)[C@H](CC(=O)O)NC2=O (stereo partly drawn) [I-717, Ac-PL3-Asp-Leu-B5-Asp-Glu-Ala-Ala-Phe-Asn-S8-3Thi-BztA-NH2]",35 µM,,,2.694,39 nM,39 nM,,
"CC(=O)N1CCC[C@]12CC=CCCCC1(CCCC=CCCCCCC[C@@](C)(C(=O)N[C@@H](Cc3cccs3)C(=O)N[C@@H](Cc3csc4ccccc34)C(=O)N[C@@H](CCC(N)=O)C(N)=O)NC(=O)[C@H](CCC(N)=O)NC(=O)[C@H](Cc3ccccc3)NC(=O)[C@H](C)NC(=O)[C@H](C)NC(=O)[C@H](CCC(=O)O)NC(=O)[C@H](CC(=O)O)NC1=O)NC(=O)[C@H](C)NC(=O)[C@H](CC(=O)O)NC2=O (stereo partly drawn) [I-428, Ac-PL3-Asp-Ala-B5-Asp-Glu-Ala-Ala-Phe-Gln-S8-2Thi-BztA-Gln-NH2]",,,,,60 nM,,1.99,14 µM

# Other lines, results leading:
Solubility [1],"IC50 [2, 4]",IC50 ([2]; read-out: beta-Catenin FP IC50),CHI Log D [3],"IC50 [2, 5]",IC50 ([2]; read-out: FP EC50),chromatographic logD [3],Solubility ([1]; Solubility (uM)),Structure (SMILES)
46 µM,1280 nM,1280 nM,1.984,,,,,"CC(=O)N1CCC[C@]12CC=CCCCC1(CCCC=CCCCOC(=O)N3CC[C@@](C(=O)N[C@@H](Cc4ccsc4)C(=O)N[C@@H](Cc4csc5ccccc45)C(=O)N[C@H](C(N)=O)[C@@H](C)O)(C3)NC(=O)[C@H](CC(N)=O)NC(=O)[C@H](Cc3ccccc3)NC(=O)[C@H](C)NC(=O)[C@H](C)NC(=O)[C@H](CN(CC(=O)O)CC(F)(F)F)NC(=O)[C@H](CC(=O)O)NC1=O)NC(=O)[C@H](CC(C)(C)C)NC(=O)[C@H](CC(=O)O)NC2=O (stereo partly drawn) [I-942, Ac-PL3-Asp-Npg-B5-Asp-TfeGA-Ala-Ala-Phe-Asn-PyrS2-3Thi-BztA-Thr-NH2]"
39 µM,,,2.135,109 nM,109 nM,,,"CO[C@H](C)[C@@H]1NC(=O)[C@H](CC(=O)O)NC(=O)[C@]2(CC=CCCCC3(CCCC=CCCCCCC[C@@](C)(C(=O)N[C@@H](Cc4ccccc4)C(=O)N[C@@H](Cc4csc5ccccc45)C(=O)N[C@@H](CCC(N)=O)C(N)=O)NC(=O)[C@H](CCC(N)=O)NC(=O)[C@H](Cc4ccccc4)NC(=O)[C@H](C)NC(=O)[C@H](C)NC(=O)[C@H](CCC(=O)O)NC(=O)[C@H](CC(=O)O)NC3=O)NC1=O)CCCN2C(C)=O (stereo partly drawn) [I-542, Ac-PL3-Asp-TOMe-B5-Asp-Glu-Ala-Ala-Phe-Gln-S8-Phe-BztA-Gln-NH2]"
10 µM,,121 nM,,,,3.21,,"CC(=O)N1CCC[C@]12CC=CCCCC1(CCCC=CCCCCCC[C@@](C)(C(=O)N[C@@H](Cc3ccccc3Cl)C(=O)N[C@@H](Cc3csc4ccccc34)C(=O)N[C@@H](CCC(N)=O)C(N)=O)NC(=O)[C@H](CC(C)C)NC(=O)[C@H](Cc3ccccc3)NC(=O)[C@H](C)NC(=O)[C@H](C)NC(=O)[C@H](CN(CC(=O)O)CC(F)(F)F)NC(=O)[C@H](CC(=O)O)NC1=O)NC(=O)[C@H](CC(C)(C)C)NC(=O)[C@H](CC(=O)O)NC2=O (stereo partly drawn) [I-994, Ac-PL3-Asp-Npg-B5-Asp-TfeGA-Ala-Ala-Phe-Leu-S8-2C1F-BztA-Gln-NH2]"
50 µM,,,2.278,45 nM,45 nM,,,"CC[C@H](C)[C@@H]1NC(=O)[C@H](CC(=O)O)NC(=O)[C@]2(CC=CCCCC3(CCCC=CCCCCCC[C@@](C)(C(=O)N[C@@H](Cc4ccsc4)C(=O)N[C@@H](Cc4csc5ccccc45)C(=O)N[C@@H](CCC(N)=O)C(N)=O)NC(=O)[C@H](CC(N)=O)NC(=O)[C@H](Cc4ccccc4)NC(=O)[C@H](C)NC(=O)[C@H](C)NC(=O)[C@H](CC(=O)O)NC(=O)[C@H](CC(=O)O)NC3=O)NC1=O)CCCN2C(C)=O (stereo partly drawn) [I-551, Ac-PL3-Asp-Ile-B5-Asp-Asp-Ala-Ala-Phe-Asn-S8-3Thi-BztA-Gln-NH2]"
10 µM,112 nM,112 nM,2.115,,,,,"CC(=O)N1CCC[C@]12CC=CCCCC1(CCCC=CCCCOC(=O)N3CC[C@@](C(=O)N[C@@H](Cc4ccsc4)C(=O)N[C@@H](Cc4csc5ccccc45)C(=O)N[C@@H](CO)C(N)=O)(C3)NC(=O)[C@H](CC(C)C)NC(=O)[C@H](Cc3ccccc3)NC(=O)[C@H](C)NC(=O)[C@H](C)NC(=O)[C@H](Cc3cccc(C(=O)O)c3)NC(=O)[C@H](CC(=O)O)NC1=O)NC(=O)[C@H](CC(C)(C)C)NC(=O)[C@H](CC(=O)O)NC2=O (stereo partly drawn) [I-987, Ac-PL3-Asp-Npg-B5-Asp-3COOHF-Ala-Ala-Phe-Leu-PyrS2-3Thi-BztA-Ser-NH2]"
